“And” between values parts separate entries of the source, which are not always exact repeats. Identical values can stand only once.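 Values below derive from 48-hour exposures of cells grown in 96-well plates, with endpoints linearly interpolated between the two concentrations bracketing the appropriate inhibition level. TGI is the concentration that stops growth completely.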

Some test systems named below: A498 renal; CCRF-CEM leukemia; COLO 205 colon; DU-145 prostate; HCT-15 colon; KM12 colon; M14 melanoma; MALME-3M melanoma; MDA-MB-231 breast; MDA-N; NCI-H460 lung; NCI-H522 lung; NCI/ADR-RES ovarian; OVCAR-5 ovarian; PC-3 prostate; RPMI-8226 leukemia; SF-539 CNS; SR leukemia; T-47D breast; UACC-62 melanoma.
What all share (experiment): inhibition of tumour cell growth, NCI panel, 48 h

Turning to `CC(=O)OCC(OC(C)=O)C(OC(C)=O)C(OC(C)=O)C(C=NN(C(C)=O)S(=O)(=O)c1ccc(/C=C2\NC(=O)N(C)C2=O)cc1)OC(C)=O` (stereo not given), the TGI was above 100 µM with A498 renal; 41.6 µM in the test with CCRF-CEM leukemia; above 100 µM in the test on COLO 205 colon; above 100 µM with DU-145 prostate; 61.9 µM and 67.1 µM with HCT-15 colon; above 100 µM with KM12 colon. Also, the TGI in the test with M14 melanoma was above 100 µM; with MALME-3M melanoma it was 37.5 µM and 52.1 µM; with MDA-MB-231 breast, > 100 µM and 96.4 µM; with MDA-N, above 100 µM; in the test with NCI-H460 lung, 50.3 µM and 56.5 µM; in the test with NCI-H522 lung, 72.9 µM. Moreover, the TGI with NCI/ADR-RES ovarian was above 100 µM; with OVCAR-5 ovarian, above 100 µM; with PC-3 prostate it was above 100 µM; in the test on RPMI-8226 leukemia, 49.8 µM and 65.8 µM; with SF-539 CNS, 56.5 µM; in the test on SR leukemia, 44.1 µM and 61 µM. Moreover, the TGI is 76.1 µM and 91.3 µM with T-47D breast; 23.3 µM and 29.5 µM in the test with UACC-62 melanoma.

Consider `COC(=O)c1ccccc1CC1Cc2ccc3c(c2C1)CCC3` (stereo not given), for which the TGI is above 100 µM in the test on A498 renal; 36.9 µM in the test on CCRF-CEM leukemia; 34.5 µM in the test with COLO 205 colon; above 100 µM in the test on DU-145 prostate; 55.3 µM in the test with HCT-15 colon; 92.1 µM with KM12 colon. For the same compound, the TGI in the test with M14 melanoma is above 100 µM; in the test with MALME-3M melanoma, 38.6 µM; in the test on MDA-MB-231 breast, 50.5 µM; with MDA-N, above 100 µM; in the test on NCI-H460 lung, above 100 µM; with NCI-H522 lung, 46.9 µM. The TGI in the test with NCI/ADR-RES ovarian is 45.7 µM; in the test on OVCAR-5 ovarian it was 91.3 µM; in the test with PC-3 prostate it was above 100 µM; in the test on RPMI-8226 leukemia it was 47.7 µM; in the test on SF-539 CNS, above 100 µM; in the test on SR leukemia, 27.1 µM. Moreover, the TGI in the test with T-47D breast and in the test with UACC-62 melanoma was above 100 µM each time.

For the origin of these results see PubChem BioAssay (NCI).
